According to patent US20070099947A1, “Methods and compositions for the treatment of brain reward system disorders by combination therapy” (Alkermes, Inc., priority 2005, published 2007):

Legend:
[1] = test system: self-administration of ethanol; test: Operant self-administration of ethanol (lever presses for 10% ethanol cocktail); type: in vivo, Male Wistar rats; settings: for Percent Change from Non-Drug Baseline: Repeated Dosing: Day 1 / Percent Change from Non-Drug Baseline: Repeated Dosing: Day 5 / Percent Change from Non-Drug Baseline: Single Dosing: lever presses for ethanol, naltrexone ED75 SC; for Percent Change from Non-Drug Baseline: Repeated Dosing: Day 1 / Percent Change from Non-Drug Baseline: Repeated Dosing: Day 5: once a day for 5 days; for effect on number of lever presses for ethanol over the dose range: naltrexone 0-6 mg/kg SC, 30 min before session; for Lever Presses (Mean ± SEM): 30 min session; for decrease in number of lever presses for ethanol compared to non-drug treated (baseline): naltrexone ED75 0.05-0.075 mg/kg SC alone
Description: Male Wistar rats (initial weight of 200±30 grams; Charles River Laboratories, MA) were individually housed with free access to food and water. The vivarium was maintained on a 12 hour light/dark cycle with a room temperature of 22±3° C.
Animals were trained daily in an operant chamber to press a lever to receive access to an ethanol cocktail as a reinforcer using a saccharin fading procedure. […] The final ethanol cocktail contained 10% ethanol in 0.04% saccharine. Each session lasted 30 minutes, during which the rat could press the lever twice to gain access to 0.1 mL of the ethanol cocktail. The operant chamber (Coulboume Instruments, Allentown, Pa.) is a computer-controlled automated system which recorded the number of lever presses completed by a rat. At the end of the training period (6-8 weeks), rats which consistently drank a minimum intake of 0.6 g/kg/hour of EtOH (approximately 60 bar presses) were selected to participate in the drug studies. These trained rats were used repeatedly throughout these studies to control for intra-subject variability. Assessments of drug effects were made following a single dosing, with a minimum of a 2 day drug washout period between arms of studies.
The ability of naltrexone to reduce ethanol drinking (i.e., decrease the number of lever presses) was assessed in this animal model of self administration of ethanol. […] The total number of lever presses was recorded over the 30 minute test session. […] In addition, oral activity was also assessed. […] The animals were tested in the operant chambers one hour later and the number of lever presses for ethanol was recorded for the 30 minute session.
This dose allows one to determine if the co-administered drugs impaired or enhanced naltrexone's effect on ethanol drinking. The drugs were administered orally 30 minutes prior to a naltrexone injection (SC), and 60 minutes prior to the beginning of the ethanol drinking test session. The number of lever presses for the ethanol cocktail was recorded at the end of the 30 minute session.
(§1) Repeated Dosing. The previous studies were conducted using a single dosing procedure. To determine if this drug interaction might be further enhanced with repeated daily dosing or conversely, the effect on decreasing alcohol self-administration is lost (due to tolerance) following multiple daily dosing, the study was repeated with a once-a-day for 5 days dosing procedure. […] Animals were tested on Day 1 and on Day 5.
as §1, with “study was” for “studies were”, “repeated” for “repeated daily”

[2] = test system: morphine-induced analgesia; test: Hotplate test: inhibition of morphine-induced analgesia; type: in vivo, Male Wistar rats; settings: 5 consecutive days SC dosing; first vs last day response latencies
[3] = Pharmacokinetic profile of opioid antagonists after IV, PO and SC administration; settings: rat; for AUC(0-inf) / bioavailability: male, Sprague Dawley, in vivo
Description: Blood samples were collected for 6 hours post-dose. Concentrations of each parent drug were determined by LC/MS-MS. Pharmacokinetic parameters were determined by noncompartmental analysis.

Cc1c(C(=O)NN2CCCCC2)nn(-c2ccc(Cl)cc2Cl)c1-c1ccc(I)cc1 [AM-251]
lever pressing for ethanol compared to non-drug treated conditions ([1]; AM-251 3.0 mg/kg alone): no effect
Percent Change from Non-Drug Baseline: Repeated Dosing: Day 1 ([1]; AM-251 1 mg/kg PO): −2%
Percent Change from Non-Drug Baseline: Repeated Dosing: Day 5 ([1]; AM-251 1 mg/kg PO): +19%

NC[C@H](CC(=O)O)c1ccc(Cl)cc1 [Baclofen, R(+)-Baclofen]
lever pressing for ethanol compared to non-drug treated conditions ([1]; baclofen 3.0 mg/kg alone, p<0.01): significantly decreased the self-administration of ethanol
Percent Change from Non-Drug Baseline: Repeated Dosing: Day 1 ([1]; baclofen 0.3 mg/kg PO): −35%
Percent Change from Non-Drug Baseline: Repeated Dosing: Day 5 ([1]; baclofen 0.3 mg/kg PO): −30%

O=C1CC[C@@]2(O)[C@H]3Cc4ccc(O)c5c4[C@@]2(CCN3CC2CC2)[C@H]1O5 [Naltrexone]
development of tolerance in blocking morphine-induced analgesia [2]: no development of tolerance
AUC(0-inf) ([3]; po, 10 mg/kg): 150 ng·h/mL
bioavailability ([3]; po, 10 mg/kg): 3%
AUC(0-inf) ([3]; sc, 0.1 mg/kg): 14.4 ng·h/mL
bioavailability ([3]; sc, 0.1 mg/kg): 31%
absorption ([3]; PO or SC): rapidly absorbed
effect on decreasing self-administration of ethanol ([1]; 0.5 mg/kg SC, 30 minutes prior to testing): equivalent effects
effect on decreasing self-administration of ethanol (oral activity) ([1]; 10 mg/kg oral gavage, tested one hour later): only RDC-0313-01 was active
ED75 (dose of naltrexone that produced a 25% decrease in lever responses for ethanol) ([1]; SC, titrated for each individual animal): 0.05 to 0.075 mg/kg
Percent Change from Non-Drug Baseline: Repeated Dosing: Day 1 ([1]; AM-251 1 mg/kg PO): −24%
Percent Change from Non-Drug Baseline: Repeated Dosing: Day 5 ([1]; AM-251 1 mg/kg PO): −19%
Percent Change from Non-Drug Baseline: Single Dosing ([1]; AM-251 PO): −33%
Percent Change from Non-Drug Baseline: Repeated Dosing: Day 1 ([1]; baclofen 0.3 mg/kg PO): −43%
Percent Change from Non-Drug Baseline: Repeated Dosing: Day 5 ([1]; baclofen 0.3 mg/kg PO): −57%
Percent Change from Non-Drug Baseline: Single Dosing ([1]; baclofen PO): −18%
decrease in lever presses versus baseline and vehicle control ([1]; lowest dose of naltrexone tested, 0.05 mg/kg): no significant decrease
effect on number of lever presses for ethanol over the dose range [1]: Suppresses the Self-Administration of Ethanol in a Dose-Dependent Manner
effect on number of lever presses for ethanol over the dose range ([1]; listed as naltrexone): dose-dependent decrease in the number of lever presses
Approximate Absolute Ethanol Consumed ([1]; naltrexone 0.05 mg/kg SC): 1.0 g/kg
Lever Presses (Mean ± SEM) ([1]; naltrexone 0.05 mg/kg SC): 132 ± 13.3
Approximate Absolute Ethanol Consumed ([1]; naltrexone 0.1 mg/kg SC): 0.7 g/kg
Lever Presses (Mean ± SEM) ([1]; naltrexone 0.1 mg/kg SC): 88 ± 8.6
Approximate Absolute Ethanol Consumed ([1]; naltrexone 0.5 mg/kg SC): 0.6 g/kg
Lever Presses (Mean ± SEM) ([1]; naltrexone 0.5 mg/kg SC): 83 ± 12.1
Approximate Absolute Ethanol Consumed ([1]; naltrexone 1.0 mg/kg SC): 0.3 g/kg
Lever Presses (Mean ± SEM) ([1]; naltrexone 1.0 mg/kg SC): 43 ± 8.6
Approximate Absolute Ethanol Consumed ([1]; naltrexone 3.0 mg/kg SC): 0.2 g/kg
Lever Presses (Mean ± SEM) ([1]; naltrexone 3.0 mg/kg SC): 24 ± 8.1
Approximate Absolute Ethanol Consumed ([1]; naltrexone 6.0 mg/kg SC): 0.2 g/kg
Lever Presses (Mean ± SEM) ([1]; naltrexone 6.0 mg/kg SC): 21 ± 5.5
effect on decreasing ethanol drinking at the higher doses ([1]; naltrexone 3 and 6 mg/kg): appeared to plateau
decrease in number of lever presses for ethanol compared to non-drug treated (baseline) ([1]; AM-251 acute dosing study): 32.5%
decrease in number of lever presses for ethanol compared to non-drug treated (baseline) ([1]; baclofen single dosing study): 18%
